# “And” between values parts separate entries of the source, which are not always exact repeats. Identical values can stand only once. Numbered stars: 1 amine (or outer) side, 2 acyl side, 3 side chain; on linkers, the order of the positions; unused ones are H or OH. Bridge positions count the residues as written; N and C are the ends. Square brackets hold non-standard residues; d marks the D form. Peptide text beside a SMILES is read from it. * marks the point of attachment. X11 = O=C([C@H](Cc1c[nH]c2cc(C/C=C/c3ccccc3)ccc12)N[*:1])[*:2]; X12 = C=C(C)/C=C/Cc1[nH]c2ccccc2c1C[C@H](N[*:1])C(=O)[*:2]; X8 = C=CC1(n2cc(C[C@H](N[*:1])C(=O)[*:2])c3ccccc32)CCCCC1; X4 = CCC(=CCn1cc(C[C@H](N[*:1])C(=O)[*:2])c2ccccc21)CC; X7 = O=C([C@H](Cc1cn(CC2=CCCCC2)c2ccccc12)N[*:1])[*:2]; X9 = CC(C)=CCn1cc(C[C@H](N[*:1])C(=O)[*:2])c2ccccc21; Glu(3R-Me) = C[C@H](CC(=O)O)[C@H](N)C(=O)O; Kyn = Nc1ccccc1C(=O)C[C@H](N)C(=O)O; Decanoyl = CCCCCCCCCC(=O)*; Orn = NCCC[C@H](N)C(=O)O
# Key:
# E. faecalis (R712) = settings: DapR, BEI HM-335; MIC90, broth microdilution, MHB + 50 mg L^−1 calcium, 35 °C, 22 h, A600, triplicate
# S. aureus (hVISA, SR220) = settings: DapS, VISA, BEI NR-50512; MIC90, broth microdilution, MHB + 50 mg L^−1 calcium, 35 °C, 22 h, A600, triplicate
# [1] = system: S. aureus (SAUSA300_1715 NE1656); settings: DapR, strain JE2 transposon mutant NE1656, BEI NR-48198; MIC90, broth microdilution, MHB + 50 mg L^−1 calcium, 35 °C, 22 h, A600, triplicate
# E. faecalis (S613) = settings: DapS, BEI HM-334; MIC90, broth microdilution, MHB + 50 mg L^−1 calcium, 35 °C, 22 h, A600, triplicate
# [2] = system: S. aureus (SAUSA300_1713 NE573); settings: DapR, strain JE2 transposon mutant NE573, BEI NR-47116; MIC90, broth microdilution, MHB + 50 mg L^−1 calcium, 35 °C, 22 h, A600, triplicate
SMILES,MIC (E. faecalis (R712)),"MIC (S. aureus (hVISA, SR220))",MIC [1],MIC (E. faecalis (S613)),MIC [2]
"CCCCCCCCCC(=O)N[C@@H](Cc1cn(CC=C(CC)CC)c2ccccc12)C(=O)N[C@H](CC(N)=O)C(=O)N[C@@H](CC(=O)O)C(=O)N[C@@H]1C(=O)NCC(=O)N[C@@H](CCCN)C(=O)N[C@@H](CC(=O)O)C(=O)N[C@H](C)C(=O)N[C@@H](CC(=O)O)C(=O)NCC(=O)N[C@H](CO)C(=O)N[C@@H]([C@H](C)CC(=O)O)C(=O)N[C@@H](CC(=O)c2ccccc2N)C(=O)O[C@@H]1C [compound 44, N1-7-Dap] (Decanoyl-[X4][dN]DTG[Orn]D[dA]DG[dS][Glu(3R-Me)][Kyn]; ester 4-C)",4.3 µg/mL,0.5 µg/mL,0.5 µg/mL,0.3 to 0.6 µg/mL and 0.5 µg/mL,–
"CCCCCCCCCC(=O)N[C@@H](Cc1cn(CC2=CCCCC2)c2ccccc12)C(=O)N[C@H](CC(N)=O)C(=O)N[C@@H](CC(=O)O)C(=O)N[C@@H]1C(=O)NCC(=O)N[C@@H](CCCN)C(=O)N[C@@H](CC(=O)O)C(=O)N[C@H](C)C(=O)N[C@@H](CC(=O)O)C(=O)NCC(=O)N[C@H](CO)C(=O)N[C@@H]([C@H](C)CC(=O)O)C(=O)N[C@@H](CC(=O)c2ccccc2N)C(=O)O[C@@H]1C [compound 53, N1-20-Dap] (Decanoyl-[X7][dN]DTG[Orn]D[dA]DG[dS][Glu(3R-Me)][Kyn]; ester 4-C)",>17.1 µg/mL,–,17.1 µg/mL,17.1 µg/mL,17.1 µg/mL
"CCCCCCCCCC(=O)N[C@@H](Cc1c[nH]c2cc(C/C=C/c3ccccc3)ccc12)C(=O)N[C@H](CC(N)=O)C(=O)N[C@@H](CC(=O)O)C(=O)N[C@@H]1C(=O)NCC(=O)N[C@@H](CCCN)C(=O)N[C@@H](CC(=O)O)C(=O)N[C@H](C)C(=O)N[C@@H](CC(=O)O)C(=O)NCC(=O)N[C@H](CO)C(=O)N[C@@H]([C@H](C)CC(=O)O)C(=O)N[C@@H](CC(=O)c2ccccc2N)C(=O)O[C@@H]1C [compound 54, C6-22-Dap] (Decanoyl-[X11][dN]DTG[Orn]D[dA]DG[dS][Glu(3R-Me)][Kyn]; ester 4-C)",8.7 µg/mL,–,–,–,–
"C=C(C)/C=C/Cc1[nH]c2ccccc2c1C[C@H](NC(=O)CCCCCCCCC)C(=O)N[C@H](CC(N)=O)C(=O)N[C@@H](CC(=O)O)C(=O)N[C@@H]1C(=O)NCC(=O)N[C@@H](CCCN)C(=O)N[C@@H](CC(=O)O)C(=O)N[C@H](C)C(=O)N[C@@H](CC(=O)O)C(=O)NCC(=O)N[C@H](CO)C(=O)N[C@@H]([C@H](C)CC(=O)O)C(=O)N[C@@H](CC(=O)c2ccccc2N)C(=O)O[C@@H]1C [compound 46, C2R-16-Dap] (Decanoyl-[X12][dN]DTG[Orn]D[dA]DG[dS][Glu(3R-Me)][Kyn]; ester 4-C)",–,17.0 µg/mL,–,–,–
"CCCCCCCCCC(=O)N[C@@H](Cc1cn(CC=C(C)C)c2ccccc12)C(=O)N[C@H](CC(N)=O)C(=O)N[C@@H](CC(=O)O)C(=O)N[C@@H]1C(=O)NCC(=O)N[C@@H](CCCN)C(=O)N[C@@H](CC(=O)O)C(=O)N[C@H](C)C(=O)N[C@@H](CC(=O)O)C(=O)NCC(=O)N[C@H](CO)C(=O)N[C@@H]([C@H](C)CC(=O)O)C(=O)N[C@@H](CC(=O)c2ccccc2N)C(=O)O[C@@H]1C [compound 40, N1-Trp-prenyl-Dap] (Decanoyl-[X9][dN]DTG[Orn]D[dA]DG[dS][Glu(3R-Me)][Kyn]; ester 4-C)",33.7 µg/mL,0.5 µg/mL,–,–,–
"C=CC1(n2cc(C[C@H](NC(=O)CCCCCCCCC)C(=O)N[C@H](CC(N)=O)C(=O)N[C@@H](CC(=O)O)C(=O)N[C@@H]3C(=O)NCC(=O)N[C@@H](CCCN)C(=O)N[C@@H](CC(=O)O)C(=O)N[C@H](C)C(=O)N[C@@H](CC(=O)O)C(=O)NCC(=O)N[C@H](CO)C(=O)N[C@@H]([C@H](C)CC(=O)O)C(=O)N[C@@H](CC(=O)c4ccccc4N)C(=O)O[C@@H]3C)c3ccccc32)CCCCC1 [compound 50, N1R-19-Dap] (Decanoyl-[X8][dN]DTG[Orn]D[dA]DG[dS][Glu(3R-Me)][Kyn]; ester 4-C)",17.3 µg/mL,–,–,–,–
